Measurements: paper PMC4552778 (European Journal of Drug Metabolism and Pharmacokinetics, 2014)
Numbered stars: 1 amine (or outer) side, 2 acyl side, 3 side chain; on linkers, the order of the positions; unused ones are H or OH. Bridge positions count the residues as written; N and C are the ends. Square brackets hold non-standard residues; d marks the D form. Peptide text beside a SMILES is read from it. * marks the point of attachment. hTyr(3S-OH,4S-OH,3'-OSO3H) = N[C@H](C(=O)O)[C@H](O)[C@@H](O)c1ccc(O)c(OS(=O)(=O)O)c1; Orn(4R-OH,5R-OH) = O=C([C@H](C[C@@H](O)[C@@H](O)N[*:3])N[*:1])[*:2]; Pro(3S-OH,4S-Me) = C[C@H]1CN[C@H](C(=O)O)[C@H]1O; X1 = CCCCCOc1ccc(-c2cc(-c3ccc(C(=O)*)cc3)no2)cc1; Gln(3R-OH) = NC(=O)C[C@@H](O)[C@H](N)C(=O)O; Hyp = O=C(O)[C@@H]1C[C@@H](O)CN1

Legend:
[1] = ref Dowell et al. [2007]; cited from earlier work
plasma protein = assay: Micafungin plasma protein binding by ultrafiltration; type: in vitro ADME, human; settings: 37 °C, range
Safety assessments = type: in vivo, human; settings: six AEs reported by four subjects of 19; single 100 mg IV dose
[2] = tested on: plasma protein, primarily albumin; settings: primarily to albumin; ref Astellas Pharma; Hebert et al. [2005b]; cited from earlier work

Molecule | Lower exposure in subjects with severe hepatic dysfunction compared with healthy controls [1] | Protein binding (plasma protein; healthy subjects, measurable in three subjects) | Protein binding (plasma protein; subjects with severe hepatic dysfunction, measurable in five subjects) | Adverse events: seriousness and relation to drug (Safety assessments) | Protein bound in plasma [2]
anidulafungin | 33% | – | – | – | –
CCCCCOc1ccc(-c2cc(-c3ccc(C(=O)N[C@H]4C[C@@H](O)[C@@H](O)NC(=O)[C@@H]5[C@@H](O)[C@@H](C)CN5C(=O)[C@H]([C@H](O)CC(N)=O)NC(=O)[C@H]([C@H](O)[C@@H](O)c5ccc(O)c(OS(=O)(=O)O)c5)NC(=O)[C@@H]5C[C@@H](O)CN5C(=O)[C@H]([C@@H](C)O)NC4=O)cc3)no2)cc1 [micafungin, Micafungin] (X1-[Orn(4R-OH,5R-OH)]T[Hyp][hTyr(3S-OH,4S-OH,3'-OSO3H)][Gln(3R-OH)][Pro(3S-OH,4S-Me)]; lactam 1-C) | – | 92.4–99.0% | 86.1–97.6% | None of these AEs was considered to be serious or to be related to micafungin | > 99%
